This note sets out measurements from patent US20260116874A1, “HETEROAROMATIC INDOLESULFONAMIDES” (SEED Therapeutics, Inc., priority 2023, published 2026).

One data set concerns HCT116 colorectal cells. Description: Cell viability assay (CellTiter-Glo) in HCT116 cells. It counts as cell-based. The following applies: Homo sapiens. How it is done:
HCT116 colorectal cells were used in these experiments. HCT116 cells were obtained from ATCC. The CellTiter-Glo® Luminescent Cell Viability Assay Reagent was obtained from Promega.
Into a 96-well plate, 3000 HCT116 cells were seeded with 100 μL of media (McCoy's 5A Medium supplemented with 10% FBS, 100 units penicillin, and 100 μg streptomycin per mL) 24h before the experiment. For compound treatment, the liquid handling system-Pico machine was used to prepare all the compounds. Each master plate contained serial dilution of 2 compounds, including the control compound E7820. 10 mM compound stock was added to each well of the assay plate to give final concentrations of […], 0.003, 0.002 and 0 μM. Each concentration was tested in triplicate. After 72h, cell viability was determined using CellTiter-Glo Luminescent Cell Viability Assay Reagent following the manufacturer's recommended protocol. Briefly, equilibrate the assay plate and its contents at room temperature for approximately 30 minutes. 100 μL of CellTiter-Glo reagent was added to each well of the assay plate and the contents were mixed for 2 minutes at 500 rpm on an orbital shaker to induce cell lysis (Fisherbrand). The plate was incubated at room temperature for 10 minutes to stabilize luminescent signal. Then the plate was immediately placed in a plate reader (PerkinElmer Multimode Plate Reader Envision2105) and the luminescence signal (0.5 second per well integration time) was determined. IC50 values were calculated using Graphpad Prism 9 software.
Cell viability assays were performed to compare the potency of Compound 1 to Compound 143.
A general note: Cellular ATP, detected with luciferase, serves as a proxy for viable cell number.

Data set [1] can be described thus: Telencephalon concentrations after oral administration. The following applies: for AUC(0-t) / Cmax: mouse, 20 mg/kg, telencephalon, female BALB/c mice, Table 8. It counts as in vivo, female BALB/c mice.
For data set [2], the target named is human ether-a-go-go related gene (hERG) channel (Homo sapiens, UniProt Q12809). In words: hERG inhibition assay (SyncroPatch automated patch clamp). The protocol:
Inhibition of compounds on human ether-a-go-go related gene (hERG) channel was evaluated using a SyncroPatch 3848/384 automated patch clamp system. The SynchroPatch system is an independent method of measuring ion flux through ion channel proteins by measuring currents induced by ion flux into and out of the cell.
CHO herg-DUO cells stably expressing hERG channel were cultured in a medium containing F12 (HAM) medium, 10% FBS, 100 μg/mL penicillin-streptomycin, […] hygromycin and 100 µg/mL G418. Cells were split using TrypLE™ Express about three times a week, and maintained at about 80% confluence.
Compounds were prepared as a 50 mM stock solution in DMSO. The stock solution of each compound was serially diluted with DMSO to prepare 30 mM, 10 mM, 3.3 mM and 1.1 mM solutions. Working solutions 60 μM, 20 μM, 6.6 μM and 2.22 μM were prepared by 500-fold dilution of the […], 30 mM, 10 mM, 3.3 mM and 1.1 mM solutions, respectively using extracellular NMDG60 solution (80 mM NaCl, 60 mM N-methyl-d-glucamine, 4 mM KCl, 2 mM CaCl2, 1 mM MgCl2, 5 mM D-glucose and 10 mM HEPES).
Cells were harvested and added to SyncroPatch 384 chip (Nanion Technologies) and washed four times. Following establishment of the whole-cell voltage clamp configuration, cells were set to a holding potential of −90 mV for measured for 500 ms and currents were at 500 Hz and filtered at 3 kHz. The hERG current was elicited by depolarizing the membrane to +30 mV for 4.8 sec and the voltage was then taken back to −50 mV for 5.2 sec to remove the inactivation and measure the deactivating tail current for a sample interval of 15 s. The maximum amount of tail current size was used to determine hERG current amplitude. hERG current in the presence of test compounds was recorded for at least 5 min to reach a steady state and then 5 sweeps were captured. If a steady state was not reached within 10 minutes, the average peak current of the last 5 sweeps was substituted for the steady state value.
For orientation: hERG is a cardiac potassium channel; its block is linked to QT prolongation.

Data set [3] can be described thus: General solubility protocol (PBS, pH 7.4). Format: physicochemical. The conditions noted are these: PBS buffer, aqueous buffer, kinetic from dmso stock, pH 7.4, 25° C. The protocol: Into a 96-well rack, 15 μL of stock solution (10 mM) of each sample was placed. Into each vial of a cap-less Solubility Sample plate 485 μL of buffer was added. The assay was performed in duplicate. To each vial one stir stick was added and each vial was sealed using a molded PTFE/Silicone plug. The Solubility Sample plate was then transferred to an Eppendorf Thermomixer Comfort plate shaker and shake at 25° C. at 1100 RPM for 2 hours. […] Using a vacuum manifold, all the samples were filtered. An aliquot of 5 μL was taken from the filtrate and 5 μL blank DMSO followed by addition of 490 μL of a mixture of H2O and acetonitrile containing an internal standard (1:1). The dilution factor may be changed according to the solubility value and the LC/MS signal response.

Setting [4] is: HCT-116, 72h, CellTiter-Glo, read-out: HCT116 Assay (IC50).
Setting [5] is: HCT-116, FIG. 5, read-out: IC50 for inhibiting cell growth in HCT116 colorectal cells.

Values after ≈ are worked out from the molar mass of the structure shown. Where two headings read alike, the source gives them in different places.

human ether-a-go-go related gene (hERG) channel, sequence (Q12809 whole entry): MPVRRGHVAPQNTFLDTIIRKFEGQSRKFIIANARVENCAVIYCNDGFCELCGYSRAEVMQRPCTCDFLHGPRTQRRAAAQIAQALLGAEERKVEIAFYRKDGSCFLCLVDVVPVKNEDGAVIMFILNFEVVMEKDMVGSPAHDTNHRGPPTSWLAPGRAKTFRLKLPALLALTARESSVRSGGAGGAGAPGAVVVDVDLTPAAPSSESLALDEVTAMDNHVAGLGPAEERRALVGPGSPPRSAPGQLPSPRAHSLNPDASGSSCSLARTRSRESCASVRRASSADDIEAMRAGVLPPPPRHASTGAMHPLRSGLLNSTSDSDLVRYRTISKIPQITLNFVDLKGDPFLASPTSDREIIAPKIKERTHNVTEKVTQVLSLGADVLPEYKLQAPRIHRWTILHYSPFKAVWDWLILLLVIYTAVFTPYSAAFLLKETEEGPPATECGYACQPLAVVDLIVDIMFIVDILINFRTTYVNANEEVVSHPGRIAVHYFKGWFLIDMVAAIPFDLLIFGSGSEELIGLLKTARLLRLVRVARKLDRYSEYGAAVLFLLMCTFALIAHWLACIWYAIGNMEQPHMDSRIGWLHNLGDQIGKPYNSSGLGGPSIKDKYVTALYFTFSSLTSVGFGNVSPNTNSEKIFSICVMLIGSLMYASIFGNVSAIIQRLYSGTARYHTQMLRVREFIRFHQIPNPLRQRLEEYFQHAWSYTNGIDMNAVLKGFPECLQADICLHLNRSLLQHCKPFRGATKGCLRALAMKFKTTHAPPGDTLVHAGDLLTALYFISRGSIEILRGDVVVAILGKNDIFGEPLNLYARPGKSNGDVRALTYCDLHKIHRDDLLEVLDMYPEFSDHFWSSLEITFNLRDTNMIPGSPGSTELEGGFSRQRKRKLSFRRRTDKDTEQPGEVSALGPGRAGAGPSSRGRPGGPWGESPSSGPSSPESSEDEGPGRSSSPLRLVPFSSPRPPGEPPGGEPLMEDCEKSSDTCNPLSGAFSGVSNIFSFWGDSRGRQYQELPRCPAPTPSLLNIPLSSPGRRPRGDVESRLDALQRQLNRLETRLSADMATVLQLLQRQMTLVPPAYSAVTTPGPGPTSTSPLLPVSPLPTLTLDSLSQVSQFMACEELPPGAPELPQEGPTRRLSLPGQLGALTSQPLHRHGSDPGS

As usually defined, the IC50 is the concentration needed to halve the response being measured. As usually defined, the AUC(0-t) is the area under the concentration-time curve up to a stated or last time point. A lower AUC(0-t) goes with less exposure. By Cmax is commonly meant the highest concentration seen after dosing. `[2H]C([2H])([2H])c1ncc(S(=O)(=O)Nc2ccc(C)c3c(C#N)c[nH]c23)s1` [Compound 143, N-(3-cyano-4-methyl-1H-indol-7-yl)-2-(methyl-d3)thiazole-5-sulfonamide]: the IC50 in the data set on HCT116 colorectal cells (setting [4]) was under 500 nM. For the same compound, in the data set on HCT116 colorectal cells (setting [5]), the IC50 worked out at 255 nM. Also, the “increase in telencephalon AUC compared to Compound 1” value in data set [1] (compared to Compound 1) is recorded as 2.5 fold. Also, in data set [1], the AUC(0-t) was 2060 ng·h/mL and the Cmax turned out to be 373 ng/mL. Also, in data set [2], the IC50 is over 50000 nM and the “hERG inhibition compared to E7820” value is on record as “less inhibition”.
Usually solubility stands for the dissolved amount per volume that the medium holds. A low value points to little dissolved substance. Turning to `Cc1ncc(S(=O)(=O)Nc2ccc(C)c3c(C#N)c[nH]c23)s1` [Compound 1, N-(3-cyano-4-methyl-1H-indol-7-yl)-2-methyl-thiazole-5-sulfonamide], the IC50 in the data set with HCT116 colorectal cells (setting [4]) is under 500 nM. In addition, in the data set on HCT116 colorectal cells (setting [5]), the IC50 came out at 259 nM. This compound also displayed a solubility at 2 h in data set [3] of 51.5 µM (≈ 17.1 µg/mL). Moreover, the “increase in telencephalon AUC compared to E7820” value in data set [1] (compared to E7820) came to 2 fold. In data set [1], this compound showed an AUC(0-t) of 774 ng·h/mL and a Cmax of 193 ng/mL. Also, in data set [2], the IC50 is over 50000 nM and the “hERG inhibition compared to E7820” value is listed as “less inhibition”.
Compound `Cc1ccc(NS(=O)(=O)c2cccc(C#N)c2)c2[nH]cc(C#N)c12` [Compound E7820, E7820, reference compound] yielded a solubility at 2 h in data set [3] of 80.7 µM (≈ 27.2 µg/mL). In data set [2], this compound returned an IC50 of 48400 nM.
